Laboratory results taken from paper PMC8163216, “Macrocycle synthesis strategy based on step-wise “adding and reacting” three components enables screening of large combinatorial libraries” (Chemical Science, 2020).
Values belong to the compound of their own block, whether it stands above or below them.

Legend:
[1] = One-pot thiol-to-amine (S-to-N) bis-alkylation/conjugate addition/SNAr: Cys thiol and N-terminal secondary benzylamine (peptoid-type) bridged by bis-electrophile linkers 1-6 (8 equiv, 800 uM) after TCEP removal of the S-SO3H group (TCEP 400 uM, excess benzylamine 1.6 mM present); details: the molecule shown is the open-chain precursor, 60 mM aq NH4HCO3 pH 8 with about 5% DMSO, 0.1 mM, 37.0 °C, 3 steps, scale: %
human thrombin = target: T1, human thrombin (Homo sapiens, UniProt P00734); experiment: Determination of the inhibitory constants of purified macrocycles (thrombin, fluorogenic substrate Z-Gly-Gly-Arg-AMC); type: biochemical; details: for Ki: purified macrocycle, 2 nM thrombin, 50 μM Z-Gly-Gly-Arg-AMC, Ki from IC50 by Cheng-Prusoff
T1 construct: consists of two polypeptide chains of 259 (H-chain) and 37 amino acid residues; purchased Molecular Innovations
Experimental: Determination of the inhibitory constants of macrocycles
The IC50s of macrocycles were determined by measuring the residual activity of thrombin at different dilutions of macrocycle using a fluorogenic substrate. The reactions were performed in a volume of 150 µl in 96-well plates. A volume of 50 µl of 2-fold dilutions of macrocycle in assay buffer (10 mM Tris-Cl [pH 7.4], 150 mM NaCl, 10 mM MgCl2, 1 mM CaCl2, 0.1% w/v BSA, 0.01% v/v Triton-X100) were pipetted to the wells. A volume of 50 µl of thrombin (6 nM) in assay buffer was added to each well to reach a final concentration of 2 nM and was incubated for 15 min. A volume of 50 µl of the fluorogenic substrate Z-Gly-Gly-Arg-AMC (150 µM) in assay buffer containing 3% DMSO was added to reach a final substrate concentration of 50 µM and 1% DMSO. Fluorescence intensity was measured for 30 min using an Infinite M200Pro plate reader (Tecan; excitation at 368 nm, emission at 467 nm) with a read every minute.
Sigmoidal curves were fitted to the data using Prism 5 (GraphPad software) and the following dose- […]
wherein x is macrocycle concentration, y is % protease activity, and p is Hill slope. IC50 values were derived […]
The inhibitory constants (Ki) were calculated using the following equation of Cheng and Prusoff: […]
wherein IC50 is the functional strength of the inhibitor, [S]0 is the total substrate concentration, and Km is the Michaelis-Menten constant. The Km for thrombin and the substrate Z-Gly-Gly-Arg-AMC was determined to […]

[2] = tested on: panel of nine human proteases; experiment: Determination of target specificity against a panel of trypsin-like serine proteases; type: biochemical; details: panel of nine human proteases structurally and functionally most similar to thrombin
Experimental: (§1) Determination of target specificity
(§2) The specificity was profiled by testing the inhibition of a panel of trypsin-like serine proteases using fluorogenic or chromogenic substrates. Dilutions of macrocycle were prepared ranging from 40 µM to 40 nM for all proteases except for thrombin (1 µM to 1 nM). The following final concentrations of human proteases were used: 2 nM thrombin (Molecular Innovations), 0.6 nM activated protein C (APC, Molecular Innovations), 1.5 nM uPA (Molecular Innovations), 0.25 nM plasma kallikrein (Innovative Research), 1 nM factor XIa (Innovative Research), 7.5 nM tPA (Molecular Innovations), 0.1 nM trypsin (Molecular Innovations), 3 nM factor XIIa (Molecular Innovations), and 2.5 nM plasmin (Molecular Innovations). […]
(§3) A volume of 50 µl of the substrate in assay buffer containing 3% DMSO was added. Fluorescence intensity was measured for 30 min using an Infinite M200Pro plate reader (Tecan; excitation at 368 nm, emission at 467 nm) with a read every minute. For APC protease, absorption was measured at 405 nm with the same plate reader for a period of 30 min with a read every minute. […] The inhibitory constants were calculated as described above. […]
(§4) Coagulation times were determined in human plasma using a STAGO STart4 coagulation analyzer (Diagnostica). […]
(§5) ball stopped moving was recorded as coagulation time. […]

human plasma [3] = experiment: Activated partial thromboplastin time (aPTT), intrinsic coagulation pathway, in human plasma; type: biochemical; details: EC2× = concentration for 2-fold increase in coagulation time
Experimental: as §1, §2, §3, §4, §5

human plasma [4] = experiment: Prothrombin time (PT), extrinsic coagulation pathway, in human plasma; type: biochemical; details: EC2× = concentration for 2-fold increase in coagulation time
Experimental: as §1, §2, §3, §4, §5

SMILES: NC(=O)[C@H](Cc1c[nH]c2ccccc12)NC(=O)CNC(=O)[C@H](CSCc1ccccc1CBr)NC(=O)CNC(=O)CNCc1ccccc1 [Bn-NH-CH2CO-Gly-Cys(SH)-Gly-Trp-NH2]
- ring closure, conversion by HPLC ([1]; 14-membered ring): 32

SMILES: NC(=O)[C@H](Cc1c[nH]c2ccccc12)NC(=O)CNC(=O)[C@H](CSc1ncnc(Cl)n1)NC(=O)CNC(=O)CNCc1ccccc1 [Bn-NH-CH2CO-Gly-Cys(SH)-Gly-Trp-NH2]
- ring closure, conversion by HPLC ([1]; 13-membered ring): 67

SMILES: NC(=O)[C@H](Cc1c[nH]c2ccccc12)NC(=O)CNC(=O)[C@H](CSCc1ccc(CBr)cc1)NC(=O)CNC(=O)CNCc1ccccc1 [Bn-NH-CH2CO-Gly-Cys(SH)-Gly-Trp-NH2]
- ring closure, conversion by HPLC ([1]; 16-membered ring): 18

SMILES: C=CS(=O)(=O)CS(=O)(=O)CCSC[C@H](NC(=O)CNC(=O)CNCc1ccccc1)C(=O)NCC(=O)N[C@@H](Cc1c[nH]c2ccccc12)C(N)=O [Bn-NH-CH2CO-Gly-Cys(SH)-Gly-Trp-NH2]
- ring closure, conversion by HPLC ([1]; 17-membered ring): 41

- Ki (human thrombin): 520 ± 110 nM
SMILES: N=C(N)NCCC[C@@H]1NC(=O)C[C@@H]2CCCN2C(=O)CN(Cc2ccco2)Cc2ccccc2CSC[C@@H](C(N)=O)NC1=O [macrocycle 61]

SMILES: C=CS(=O)(=O)CCSC[C@H](NC(=O)CNC(=O)CNCc1ccccc1)C(=O)NCC(=O)N[C@@H](Cc1c[nH]c2ccccc12)C(N)=O [Bn-NH-CH2CO-Gly-Cys(SH)-Gly-Trp-NH2]
- ring closure, conversion by HPLC ([1]; 15-membered ring): 93

- Ki (human thrombin): 95 ± 17 nM
SMILES: N=C(N)NCCC[C@@H]1NC(=O)C[C@H]2CCCN2C(=O)CN(Cc2ccccc2CO)Cc2ccccc2CSC[C@@H](C(N)=O)NC1=O [macrocycle 60]

- Ki (human thrombin): 10.6 ± 2 nM
- fold improvement of Ki over parental macrocycle 7 (human thrombin; thrombin Ki relative to 7): 5.5 fold
SMILES: N=C(N)NCCC[C@@H]1NC(=O)C[C@H]2CCCN2C(=O)CN(Cc2ccco2)Cc2ccccc2CSC[C@@H](C(N)=O)NC1=O [macrocycle 57]
- target selectivity [2]: high target selectivity
- fold better aPTT EC2× than parent 7 (human plasma [3]): 1.4 fold
- fold better PT EC2× than parent 7 (human plasma [4]): 1.9 fold

SMILES: NC(=O)[C@H](Cc1c[nH]c2ccccc12)NC(=O)CNC(=O)[C@H](CSCc1cccc(CBr)n1)NC(=O)CNC(=O)CNCc1ccccc1 [Bn-NH-CH2CO-Gly-Cys(SH)-Gly-Trp-NH2]
- ring closure, conversion by HPLC ([1]; 15-membered ring): 86

- Ki (human thrombin): 59 ± 6 nM
SMILES: N=C(N)NCCCC1NC(=O)CC2CCCN2C(=O)CN(Cc2ccccc2CO)Cc2ccccc2CSCC(C(N)=O)NC1=O (centres unmarked) [macrocycle 7]
